{"source": "patent EP2444396A1", "about": "“PHOTOPROTECTIVE COMPOSITION” (Apoteknos Para La Piel, S.L., priority 2009, dated 2010)", "key": {"[1]": {"biological_target": "T1, estrogen receptor alpha (ERα) (Homo sapiens, UniProt P03372)", "T1 construct": "which endogenously express the estrogen receptor alpha (ERα); endogenous in cells; host or cells: MELN (MCF-7 stably transfected with ERE-βGlob-Luc-SV-Neo)", "T1 sequence (P03372 1-595)": "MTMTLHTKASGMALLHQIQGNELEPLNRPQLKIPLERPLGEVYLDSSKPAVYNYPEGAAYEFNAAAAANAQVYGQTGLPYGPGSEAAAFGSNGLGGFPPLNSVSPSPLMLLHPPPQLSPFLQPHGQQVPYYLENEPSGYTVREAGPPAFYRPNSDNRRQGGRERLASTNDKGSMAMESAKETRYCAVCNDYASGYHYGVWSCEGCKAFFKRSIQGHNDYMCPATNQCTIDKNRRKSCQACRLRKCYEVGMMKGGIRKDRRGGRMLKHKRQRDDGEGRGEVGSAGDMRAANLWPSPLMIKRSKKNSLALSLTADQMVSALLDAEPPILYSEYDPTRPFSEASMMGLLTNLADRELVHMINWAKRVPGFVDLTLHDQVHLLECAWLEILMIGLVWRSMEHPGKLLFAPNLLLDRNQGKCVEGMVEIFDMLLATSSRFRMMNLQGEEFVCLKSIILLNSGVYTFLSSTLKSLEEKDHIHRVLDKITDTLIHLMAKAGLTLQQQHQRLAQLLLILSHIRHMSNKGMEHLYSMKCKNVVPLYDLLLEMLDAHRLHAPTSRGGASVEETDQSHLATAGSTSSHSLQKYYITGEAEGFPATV", "experiment": "Estrogenicity reporter gene bioassay (luciferase activity) in MELN cells", "assay_type": "cell-based", "description": "(§1) Briefly, the transactivation bioassay (Reporter gene assay) used are based on the use of breast and uterine cancer cell lines transfected with different native or modified hormone receptors. The resulting cell lines further contain a reporter gene regulated by estrogens through the estrogen response element, the globin promoter and the luciferase gene.\nMELN cells were obtained by means of transfecting the MCF-7 breast cancer cell line [which endogenously express the estrogen receptor alpha (ERα)] with an estrogen sensitive response element (ERE-βGlob-Luc-SV-Neo). The selection of clones resistant to geneticin was performed using a concentration of 1 mg/mL. The maintenance medium for this cell line is DMEM F12 (Dulbecco's modified Eagle medium) with phenol red supplemented with 10% FBS, 1% of penicillin/streptomycin and 1 mg/mL of geneticin. Due to the estrogenic activity of the phenol red and FBS, the experiments are preformed in medium known as experimental medium, i.e., a culture medium without phenol red and with FBS lacking of estrogens. The experimental medium for this line is DMEM without phenol red supplemented with 3% of FBS treated with carbon-dextran.\n(§2) The cells were seeded at a density of 5x10^4 cells per well in white opaque 96 well plates in 150 µL of experimental medium. After 8 hours, the compounds to be assayed (p-nitrolophine and estradiol) were prepared (concentrated 4x) in the same medium and were added to each well (50 µl). The cells were incubated for 16 hours at 37°C. At the end of the incubation, the medium was removed and replaced with fresh medium containing […] luciferin [at that concentration, luciferin diffuses into cell producing a luminescent signal which is stable after 5 minutes and for at least 2 hours]. The plates were then introduced in the luminometer to measure the luminescence for 2 seconds. A YicroBeta Trilux luminometer (EGG Wallac) apparatus was used to detect luciferase activity.\n(§3) The assays were preformed in quadruple for each concentration (0.01-10 µM) in at least three independent experiments. […] The values of luciferase activity obtained were analyzed using the one-way ANOVA statistic test. The differences were considered significant when P was less than […] (P < 0.05)."}, "[2]": {"biological_target": "T2, ERβ (Homo sapiens, UniProt Q92731)", "T2 construct": "expressed in transfected cells; host or cells: HeLa (HELN-ERβ)", "T2 sequence (Q92731 whole entry, species assumed)": "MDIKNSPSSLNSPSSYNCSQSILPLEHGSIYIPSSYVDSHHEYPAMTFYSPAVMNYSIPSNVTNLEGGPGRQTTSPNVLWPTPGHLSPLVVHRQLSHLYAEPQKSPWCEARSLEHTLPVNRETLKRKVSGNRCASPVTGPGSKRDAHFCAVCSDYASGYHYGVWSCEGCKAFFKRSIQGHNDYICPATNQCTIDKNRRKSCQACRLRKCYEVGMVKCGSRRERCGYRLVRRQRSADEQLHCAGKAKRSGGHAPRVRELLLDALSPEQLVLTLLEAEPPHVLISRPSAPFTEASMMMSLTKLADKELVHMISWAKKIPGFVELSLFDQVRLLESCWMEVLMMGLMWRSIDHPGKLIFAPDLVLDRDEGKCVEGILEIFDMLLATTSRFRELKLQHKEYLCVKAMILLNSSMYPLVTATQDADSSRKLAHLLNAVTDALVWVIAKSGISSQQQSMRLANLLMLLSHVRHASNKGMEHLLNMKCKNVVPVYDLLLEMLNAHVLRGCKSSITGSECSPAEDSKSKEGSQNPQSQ", "experiment": "Estrogenicity reporter gene bioassay (luciferase activity) in HELN-ERβ cells", "assay_type": "cell-based", "description": "as §1\nHELN-ERα and HELN-ERβ cell lines were obtained by means of transfecting the HeLa uterine cancer cell line. In a first phase, said cells were transfected with an estrogen sensitive response element and then with the estrogen receptor alpha or beta (ERα or ERβ). The selection of clones resistant to geneticin and puromycin was performed using a concentration of 1 mg/mL and 0.5 mg/mL, respectively. The maintenance medium as well as the experimental medium of these 2 cell lines is DMEM F12 without phenol red supplemented with 6% of FBS (lacking of estrogens), 1% of penicillin / streptomycin, 1 mg/mL of geneticin and 0.5 µg/mL of puromycin.\nas §2, §3"}, "[3]": {"tested_on": "inflammation induced by phorbol 12-myristate-13-acetate (PMA)", "experiment": "Topical anti-inflammatory activity: ear inflammation induced by PMA in mice", "assay_type": "in vivo", "set-up": "RE / RE Average: unit not given here", "settings": "for LE Average: left ear (non treated); for LE Average / RE Average: group average; for RE Average: right ear (treated); for LE: weight of 6 mm portion of left ear (non treated); for LE / RE: individual mice; for RE: weight of 6 mm portion of right ear (treated)", "protocol": "The topical anti-inflammatory activity of p-nitrolophine has been analyzed in this study since erythema is a inflammatory process. Specifically, the inhibition of inflammation induced by phorbol 12-myristate-13-acetate (PMA) was evaluated and compared with an anti-inflammatory product of reference (indometacin). 37 mice were divided into the following groups: positive control group (PMA 0.5 mg); negative control group (indometacin 0.5 mg); treated groups (0.5 mg and 1 mg of p-nitrolophine). All the solutions were prepared using acetone (ppa) as vehicle. 20 µL of solution of 25 mg/mL of phorbol 12-myristate-13-acetate (PMA) [Fluka cod 79346] (10 µL in each face) was administered in the right ear of each mouse. Immediately after administering the PMA, nothing more was administered into the positive control group; 20 µL of the solution of 25 mg/mL of indometacin was administered to the negative control group, and 20 µL of the solution of 25 or 50 mg/mL of 4-nitrolophine was administered in the same manner to the treated groups. Animals having no lesions or skin and ear irritation were used.\nAfter 4 hours of post-treatment, the mice were sacrificed through cervical fracture and a portion of 6 mm in diameter was obtained from each ear with a hollow punch which was weight in precision analytical balance. The difference in weight (Δ) between the right ear (treated) and the left ear (non treated) for each animal and for each group were calculated. The percentage of inhibition (% inh) was estimated and calculated according to the following equation: % inh = 100(1-Δt/Δc) [formula] wherein Δt represents the difference in the treated groups and Δc the difference for the […].\nIn order to analyze the results, an one way ANOVA and Dunnet test for multiple comparison was used, values of P<0.05 were considered significant. A software, Graphpad Instat Version 3.06, was used for such purposes."}}, "note": "“And” between values parts separate entries of the source, which are not always exact repeats. Equal values may be shown once. Marks after values point to notes of the source that are not given here.", "data": [{"compound": "O=[N+]([O-])c1ccc(-c2nc(-c3ccccc3)c(-c3ccccc3)[nH]2)cc1", "note": "[p-nitrolophine, 2-(4-nitrophenyl)-4,5-diphenyl-1H-imidazole]", "values": [{"measurement": "activity at 0.01 µM", "setting": "[1]", "value": "15.2 ± 0.6", "unit": "%"}, {"measurement": "activity at 0.03 µM", "setting": "[1]", "value": "15.3 ± 0.5", "unit": "%"}, {"measurement": "activity at 0.1 µM", "setting": "[1]", "value": "15.6 ± 0.3", "unit": "%"}, {"measurement": "activity at 0.3 µM", "setting": "[1]", "value": "15.5 ± 0.9", "unit": "%"}, {"measurement": "activity at 1 µM", "setting": "[1]", "value": "16 ± 0.4", "unit": "%"}, {"measurement": "activity at 3 µM", "setting": "[1]", "value": "15.2 ± 0.4", "unit": "%"}, {"measurement": "activity at 10 µM", "setting": "[1]", "value": "15.6 ± 0.9", "unit": "%"}, {"measurement": "estrogenicity", "setting": "[1]; MELN cells, up to 10 µM, conclusion in words", "value": "not an estrogenic compound"}, {"measurement": "activity at 0.01 µM", "setting": "[2]", "value": "9.6 ± 1.4", "unit": "%"}, {"measurement": "activity at 0.03 µM", "setting": "[2]", "value": "10 ± 0.8", "unit": "%"}, {"measurement": "activity at 0.1 µM", "setting": "[2]", "value": "10.2 ± 1.3", "unit": "%"}, {"measurement": "activity at 0.3 µM", "setting": "[2]", "value": "10.3 ± 1.1", "unit": "%"}, {"measurement": "activity at 1 µM", "setting": "[2]", "value": "10.1 ± 1.3", "unit": "%"}, {"measurement": "activity at 3 µM", "setting": "[2]", "value": "10.2 ± 1.9", "unit": "%"}, {"measurement": "activity at 10 µM", "setting": "[2]", "value": "10.6 ± 1.2", "unit": "%"}, {"measurement": "estrogenicity", "setting": "[2]; HELN-ERβ line, conclusion in words", "value": "not an estrogenic compound"}, {"measurement": "% inhibition", "setting": "[3]; 4 hours", "value": "100** (q = 9.5) %"}, {"measurement": "Average (Δ = RE - LE)", "setting": "[3]; Dose (mg/ear) 0.5, 4 hours", "value": -0.13}, {"measurement": "% inhibition", "setting": "[3]; Dose (mg/ear) 1, n=4, tendency, not statistically compared", "value": "~90", "unit": "%"}, {"measurement": "Average (Δ = RE - LE)", "setting": "[3]; Dose (mg/ear) 1, n=4, 4 hours", "value": 0.52}, {"measurement": "LE Average", "setting": "[3]; 0.5 mg group, 4 hours", "value": 6.7}, {"measurement": "LE Average", "setting": "[3]; 1 mg group, 4 hours", "value": 5.9}, {"measurement": "RE Average", "setting": "[3]; 0.5 mg, 4 hours", "value": 6.6}, {"measurement": "RE Average", "setting": "[3]; 1 mg, 4 hours", "value": 6.4}, {"measurement": "LE", "setting": "[3]; 0.5 mg group, 4 hours, listed as 4-nitrolophine", "value": "9.9 and 7.5 (2×) and 6.2 (2×) and 6.4 and 6.7 (2×) and 5.6 and 5.2 and 5.9 and 7.8 and 6"}, {"measurement": "LE", "setting": "[3]; 1 mg group, 4 hours, listed as 4-Nitrolophine", "value": "5.6 and 5.8 and 5,5 and 6.6"}, {"measurement": "RE", "setting": "[3]; 0.5 mg, 4 hours, listed as 4-nitrolophine", "value": "7.3 and 7 and 5.9 (2×) and 5.6 and 6.6 (2×) and 7.2 and 7.8 and 6.5 and 6 and 7.7 and 5.8"}, {"measurement": "RE", "setting": "[3]; 1 mg, 4 hours, listed as 4-Nitrolophine", "value": "5.9 and 7.3 and 6.2 (2×)"}]}]}
